# Patent publication US10045983B2, “Heteroaryl pyridone and aza-pyrodine compounds” (Genentech, Inc., priority 2011, dated 2018)
# Like-named read-outs stand apart in the source and are kept apart here.
# Experiment: CD69 Whole Blood Assay (CD69 Hu Blood FACS)
# Format: cell-based, human
# Conditions: Lymphocyte, human whole blood, anti-IgM activated B lymphocytes, FACS, IC70
# Outline: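 Human whole blood stimulated by crosslinking surface IgM with goat F(ab′)2 anti-human IgM; inhibition of CD69 expression on B lymphocytes measured by flow cytometry.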
# [1] = Table 1, read-out: CD69 Hu Blood FACS IC70
# [2] = Table 2 (unit inferred), read-out: CD69 Hu Blood FACS (IC70)
Structure (SMILES),IC70 [1] [nM],IC70 [2] [nM]
"Cn1cc(-c2ccnc(N3CCn4c(cc5c4CCCC5)C3=O)c2CO)cc(Nc2ccc(N3CCN(C4COC4)CC3(C)C)cn2)c1=O [Example 187, 2-(4-(5-(5-(2,2-dimethyl-4-(oxetan-3-yl)piperazin-1-yl)pyridin-2-ylamino)-1-methyl-6-oxo-1,6-dihydropyridin-3-yl)-3-(hydroxymethyl)pyridin-2-yl)-3,4,6,7,8,9-hexahydropyrazino[1,2-a]indol-1(2H)-one]",45.1,
"Cn1cc(-c2ccnc(N3CCn4c(cc5c4CC(C)(C)C5)C3=O)c2CO)cc(Nc2cnccn2)c1=O [Example 188, 2-[3′-Hydroxymethyl-1-methyl-6-oxo-5-(pyrazin-2-ylamino)-1,6-dihydro-[3,4′]bipyridinyl-2′-yl]-7,7-dimethyl-3,4,7,8-tetrahydro-2H,6H-cyclopenta[4,5]pyrrolo[1,2-a]pyrazin-1-one]",601,
"Cn1cc(-c2ccnc(N3CCn4c(cc5c4CCCC5)C3=O)c2CO)cc(Nc2cnc(N3CCN(C4COC4)CC3)cn2)c1=O [Example 189, 2-(3-(hydroxymethyl)-4-(1-methyl-5-(5-(4-(oxetan-3-yl)piperazin-1-yl)pyrazin-2-ylamino)-6-oxo-1,6-dihydropyridin-3-yl)pyridin-2-yl)-3,4,6,7,8,9-hexahydropyrazino[1,2-a]indol-1(2H)-one]",652,
"Cn1cc(-c2ccnc(N3CCn4c(cc5c4CCCC5)C3=O)c2CO)cc(Nc2ccc(N3CCN(C4COC4)CC3(C)C)cn2)c1=O [Example 190, 2-[4-[5-[[5-[2,2-dimethyl-4-(oxetan-3-yl)piperazin-1-yl]-2-pyridyl]amino]-1-methyl-6-oxo-3-pyridyl]-3-(hydroxymethyl)-2-pyridyl]-3,4,6,7,8,9-hexahydropyrazino[1,2-a]indol-1-one]",,70.4
"C[C@H]1CN(C2COC2)CCN1c1ccc(Nc2cc(-c3ccnc(-n4ncc5c6c(sc5c4=O)CCCC6)c3CO)cn(C)c2=O)nc1 [Example 191, 5-[3-(Hydroxymethyl)-4-[1-methyl-5-({5-[(2S)-2-methyl-4-(oxetan-3-yl)pipera-zin-1-yl]pyridin-2-yl}amino)-6-oxo-1,6-dihydropyridin-3-yl]pyridin-2-yl]-8-thia-4,5-diazatricyclo[7.4.0.0^2,7]trideca-1(9),2(7),3-trien-6-one]",,43.5
"C[C@H]1CN(C2COC2)CCN1c1ccc(Nc2cc(-c3ccnc(-n4ncc5c6n(cc5c4=O)CCCC6)c3CO)cn(C)c2=O)nc1 [Example 192, 3-[3-(hydroxymethyl)-4-[1-methyl-5-[[5-[(2S)-2-methyl-4-(oxetan-3-yl)piperazin-1-yl]-2-pyridyl]amino]-6-oxo-3-pyridyl]-2-pyridyl]-7,8,9,10-tetrahydropyridazino[4,5-a]indolizin-4-one]",,1100
"C[C@H]1CN(C2COC2)CCN1c1ccc(Nc2cc(-c3ccnc(-n4ncc5c(cc6n5CCCC6)c4=O)c3CO)cn(C)c2=O)nc1 [Example 193, 2-[3-(hydroxymethyl)-4-[1-methyl-5-[[5-[(2S)-2-methyl-4-(oxetan-3-yl)piperazin-1-yl]-2-pyridyl]amino]-6-oxo-3-pyridyl]-2-pyridyl]-6,7,8,9-tetrahydropyridazino[4,5-b]indolizin-1-one]",,99.5
"Cn1cc(-c2ccnc(-n3ncc4c5c(sc4c3=O)CCCC5)c2CO)cc(Nc2cnccn2)c1=O [Example 194, 3-[3-(hydroxymethyl)-4-[1-methyl-6-oxo-5-(pyrazin-2-ylamino)-3-pyridyl]-2-pyridyl]-6,7,8,9-tetrahydrobenzothiopheno[2,3-d]pyridazin-4-one]",,1200
"CN1CCn2nc(Nc3cc(-c4ccnc(-n5ccn6c7c(cc6c5=O)CCCC7)c4CO)cn(C)c3=O)cc2C1 [Example 195, 2-[3-(hydroxymethyl)-4-[1-methyl-5-[(5-methyl-6,7-dihydro-4H-pyrazolo[1,5-a]pyrazin-2-yl)amino]-6-oxo-3-pyridyl]-2-pyridyl]-6,7,8,9-tetrahydropyrazino[1,2-a]indol-1-one]",,101
"Cn1cc(-c2ccnc(N3CCn4c(cc5c4CCCC5)C3=O)c2CO)nc(Nc2ccc(N3CCN(C4COC4)CC3)nc2)c1=O [Example 197, 2-[3-(hydroxymethyl)-4-[4-methyl-6-[[6-[4-(oxetan-3-yl)piperazin-1-yl]-3-pyridyl]amino]-5-oxo-pyrazin-2-yl]-2-pyridyl]-3,4,6,7,8,9-hexahydropyrazino[1,2-a]indol-1-one]",,2300
"Cn1cc(-c2ccnc(-n3ncc4c5n(cc4c3=O)CCCC5)c2CO)cc(Nc2ccc(N3CCN(C4COC4)CC3)cn2)c1=O [Example 198, 3-[3-(hydroxymethyl)-4-[1-methyl-5-[[5-[4-(oxetan-3-yl)piperazin-1-yl]-2-pyridyl]amino]-6-oxo-3-pyridyl]-2-pyridyl]-7,8,9,10-tetrahydropyridazino[4,5-a]indolizin-4-one]",,6000
"Cn1cc(-c2ccnc(N3CCn4c(cc5c4CC(C)(C)C5)C3=O)c2CO)cc(Nc2ccn3ccnc3n2)c1=O [Example 199, 3-[3-(hydroxymethyl)-4-[5-(imidazo[1,2-a]pyrimidin-7-ylamino)-1-methyl-6-oxo-3-pyridyl]-2-pyridyl]-7,7-dimethyl-1,2,6,8-tetrahydrocyclopenta[3,4]pyrrolo[3,5-b]pyrazin-4-one]",,934
"Cn1cc(-c2ccnc(N3CCn4c(cc5c4CCCC5)C3=O)c2CO)cc(Nc2ccc(C3=CCN(C4COC4)CC3)cn2)c1=O [Example 200, 2-[3-(hydroxymethyl)-4-[1-methyl-5-[[5-[1-(oxetan-3-yl)-3,6-dihydro-2H-pyridin-4-yl]-2-pyridyl]amino]-6-oxo-3-pyridyl]-2-pyridyl]-3,4,6,7,8,9-hexahydropyrazino[1,2-a]indol-1-one]",,636
"Cn1cc(-c2ccnc(N3CCn4c(cc5c4CC(C)(C)C5)C3=O)c2CO)nc(Nc2ccc3nccn3c2)c1=O [Example 201, 3-[3-(hydroxymethyl)-4-[6-(imidazo[1,2-a]pyridin-6-ylamino)-4-methyl-5-oxo-pyrazin-2-yl]-2-pyridyl]-7,7-dimethyl-1,2,6,8-tetrahydrocyclopenta[3,4]pyrrolo[3,5-b]pyrazin-4-one]",,3300
"CN1CCn2nc(Nc3cc(-c4ccnc(-n5ncc6c7n(cc6c5=O)CCCC7)c4CO)cn(C)c3=O)cc2C1 [Example 202, 3-[3-(hydroxymethyl)-4-[1-methyl-5-[(5-methyl-6,7-dihydro-4H-pyrazolo[1,5-a]pyrazin-2-yl)amino]-6-oxo-3-pyridyl]-2-pyridyl]-7,8,9,10-tetrahydropyridazino[4,5-a]indolizin-4-one]",,7300
"CN1CCc2nc(Nc3cc(-c4ccnc(N5CCn6c(cc7c6CC(C)(C)C7)C5=O)c4CO)cn(C)c3=O)sc2C1 [Example 203, 3-[3-(hydroxymethyl)-4-[1-methyl-5-[(5-methyl-6,7-dihydro-4H-thiazolo[5,4-c]pyridin-2-yl)amino]-6-oxo-3-pyridyl]-2-pyridyl]-7,7-dimethyl-1,2,6,8-tetrahydrocyclopenta[3,4]pyrrolo[3,5-b]pyrazin-4-one]",,60.5
"CN1CCn2nc(Nc3cc(-c4ccnc(-n5ncc6c(cc7n6CCCC7)c5=O)c4CO)cn(C)c3=O)cc2C1 [Example 204, 2-[3-(hydroxymethyl)-4-[1-methyl-5-[(5-methyl-6,7-dihydro-4H-pyrazolo[1,5-a]pyrazin-2-yl)amino]-6-oxo-3-pyridyl]-2-pyridyl]-6,7,8,9-tetrahydropyridazino[4,5-b]indolizin-1-one]",,436
"Cn1cc(-c2ccnc(N3CCn4c(cc5c4CCCC5)C3=O)c2CO)cc(Nc2cc3n(n2)CCNC3)c1=O [Example 205, 2-[3-(hydroxymethyl)-4-[1-methyl-6-oxo-5-(4,5,6,7-tetrahydropyrazolo[1,5-a]pyrazin-2-ylamino)-3-pyridyl]-2-pyridyl]-3,4,6,7,8,9-hexahydropyrazino[1,2-a]indol-1-one]",,114
"CN1CC(Oc2ccc(Nc3cc(-c4ccnc(N5CCn6c(cc7c6CCCC7)C5=O)c4CO)cn(C)c3=O)nc2)C1 [Example 206, 2-[3-(hydroxymethyl)-4-[1-methyl-5-[[5-(1-methylazetidin-3-yl)oxy-2-pyridyl]amino]-6-oxo-3-pyridyl]-2-pyridyl]-3,4,6,7,8,9-hexahydropyrazino[1,2-a]indol-1-one]",,150
"CN1CC(Oc2ccc(Nc3cc(-c4ccnc(N5CCn6c(cc7c6CC(C)(C)C7)C5=O)c4CO)cn(C)c3=O)nc2)C1 [Example 207, 3-[3-(hydroxymethyl)-4-[1-methyl-5-[[5-(1-methylazetidin-3-yl)oxy-2-pyridyl]amino]-6-oxo-3-pyridyl]]-7,7-dimethyl-1,2,6,8-tetrahydrocyclopenta[3,4]pyrrolo[3,5-b]pyrazin-4-one]",,41.4
"CCN1CCn2nc(Nc3cc(-c4ccnc(N5CCc6c(cc7n6CCCC7)C5=O)c4CO)cn(C)c3=O)cc2C1 [Example 208, 2-[4-[5-[(5-ethyl-6,7-dihydro-4H-pyrazolo[1,5-a]pyrazin-2-yl)amino]-1-methyl-6-oxo-3-pyridyl]-3-(hydroxymethyl)-2-pyridyl]-3,4,6,7,8,9-hexahydropyrido[3,4-b]indolizin-1-one]",,580
"CC(=O)N1CCn2nc(Nc3cc(-c4ccnc(N5CCn6c(cc7c6CCCC7)C5=O)c4CO)cn(C)c3=O)cc2C1 [Example 209, 2-[4-[5-[(5-acetyl-6,7-dihydro-4H-pyrazolo[1,5-a]pyrazin-2-yl)amino]-1-methyl-6-oxo-3-pyridyl]-3-(hydroxymethyl)-2-pyridyl]-3,4,6,7,8,9-hexahydropyrazino[1,2-a]indol-1-one]",,116
"C[C@H]1CN(C2COC2)CCN1c1ccc(Nc2cc(-c3ccnc(N4CCn5c(cc6c5CC(C)(C)C6)C4=O)c3C(N)=O)cn(C)c2=O)nc1 [Example 210, 2-(7,7-dimethyl-4-oxo-1,2,6,8-tetrahydrocyclopenta[3,4]pyrrolo[3,5-b]pyrazin-3-yl)-4-[1-methyl-5-[[5-[(2S)-2-methyl-4-(oxetan-3-yl)piperazin-1-yl]-2-pyridyl]amino]-6-oxo-3-pyridyl]pyridine-3-carboxamide]",,914
